Experimental data taken from BindingDB's records for doi:10.1021/jm0010466 (2001).
Where a SMILES comes first, the peptide text is derived from it.

Assay: Binding affinity towards 23-nt RNA oligonucleotide from the 5'-untranslated region of the cholestery ester transfer protein (CETP)

For `CC(C)C[C@H](NC(=O)[C@H](CCCCN)NC(=O)[C@H](Cc1ccc(O)cc1)NC(=O)[C@@H](N)CCCCN)C(=O)N[C@@H](Cc1ccc(O)cc1)C(=O)N[C@@H](CCCCN)C(=O)N[C@@H](CS)C(N)=O` (H-KYKLYKC-NH2), the Kd was 32 µM.
